Reference: BindingDB's records for PubMed 2530338 (Medical University of South Carolina, 1989)

What follows are compounds tested against T1, Thromboxane A2 receptor (Homo sapiens, UniProt P21731).
T1 sequence (P21731 whole entry): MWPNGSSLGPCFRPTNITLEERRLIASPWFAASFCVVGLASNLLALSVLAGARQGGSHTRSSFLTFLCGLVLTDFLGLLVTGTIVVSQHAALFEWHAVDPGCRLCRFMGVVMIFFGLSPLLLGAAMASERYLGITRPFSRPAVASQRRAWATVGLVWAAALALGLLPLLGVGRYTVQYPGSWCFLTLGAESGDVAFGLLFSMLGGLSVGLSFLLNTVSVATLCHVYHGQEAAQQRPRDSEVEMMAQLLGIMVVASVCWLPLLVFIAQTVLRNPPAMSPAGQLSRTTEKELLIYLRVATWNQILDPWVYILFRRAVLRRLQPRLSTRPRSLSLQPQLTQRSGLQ
In the case of `CCCCC[C@H](O)CC[C@H]1c2cc([nH]n2)[C@@H]1CC=CCCCC(=O)O` [9,11-AzoPGH2], the Ki is reported as 41 nM. Work on `CCCCC[C@H](O)/C=C/C1[C@@H](C/C=C\CCCC(=O)O)[C@H]2CO[C@@H]1C2` (some centres undefined) [U46619] yielded a Ki of 62 nM. `CCCCC[C@H](O)/C=C/C1C[C@H]2C[C@H](S2)[C@@H]1C/C=C\CCCC(=O)O` (some centres undefined) [STA2] showed a Ki of 17 nM. In the case of `O=C(O)C[C@@H]1CCCc2c1n(Cc1ccc(Cl)cc1)c1ccc(F)cc21` [CAS_113243-00-8], the Ki is reported as 424 nM.
